Test results reported in patent US10945435B2, “Imidazopyrimidine derivatives with sulfur containing phenyl and pyridyl substituents” (SYNGENTA PARTICIPATIONS AG, priority 2017, dated 2021).

What was measured:
[1] = test system: Spodoptera littoralis (Egyptian Cotton Leaf Worm); assay: Example B16 Spodoptera littoralis feeding/contact activity; format: in vivo; settings: foliar, 72 h, application rate of 200 ppm, L1 larvae on sprayed cotton leaf discs, 3 days after infestation
Protocol: Spodoptera littoralis (Egyptian Cotton Leaf Worm): Feeding/Contact Activity
(§1) Cotton leaf discs were placed onto agar in 24-well microtiter plates and sprayed with aqueous test solutions prepared from 10,000 ppm DMSO stock solutions. After drying the leaf discs were infested with five L1 larvae. The samples were assessed for mortality 3 days after infestation.

[2] = test system: Diabrotica balteata (Corn Root Worm); assay: Example B4 Diabrotica balteata mortality; format: in vivo; settings: 96 h, application rate of 200 ppm, L2 larvae on sprayed maize sprouts, 4 days after infestation
Protocol: (§2) Diabrotica Balteata (Corn Root Worm):
(§3) Maize sprouts placed onto an agar layer in 24-well microtiter plates were treated with aqueous test solutions prepared from 10,000 ppm DMSO stock solutions by spraying. After drying, the plates were infested with L2 larvae (6 to 10 per well). The samples were assessed for mortality 4 days after infestation.

[3] = test system: Diabrotica balteata (Corn Root Worm); assay: Example B2 Diabrotica balteata mortality and growth inhibition; format: in vivo; settings: 96 h, application rate of 200 ppm, L2 larvae on sprayed maize sprouts, 4 days after infestation, read-out: effect in at least one of the two categories (mortality or growth inhibition)
Protocol: Diabrotica balteata (Corn Root Worm)
as §3, with “mortality and growth inhibition in comparison to untreated samples” for “mortality”

[4] = test system: Plutella xylostella (Diamond Back Moth); assay: Example B13 Plutella xylostella mortality and growth inhibition; format: in vivo; settings: 120 h, application rate of 200 ppm, L2 larvae on treated artificial diet, 5 days after infestation, read-out: effect in at least one of the two categories (mortality or growth inhibition)
Protocol: Plutella xylostella (Diamond Back Moth)
(§4) 24-well microtiter plates with artificial diet were treated with aqueous test solutions prepared from 10,000 ppm DMSO stock solutions by pipetting. After drying, the plates were infested with L2 larvae (10 to 15 per well). The samples were assessed for mortality and growth inhibition in comparison to untreated samples 5 days after infestation.

[5] = test system: Euschistus heros (Neotropical Brown Stink Bug); assay: Example B7 Euschistus heros feeding/contact activity; format: in vivo; settings: 120 h, application rate of 200 ppm, N2 nymphs on sprayed soybean leaves, 5 days after infestation
Protocol: Euschistus heros (Neotropical Brown Stink Bug): Feeding/Contact Activity
(§5) Soybean leaves on agar in 24-well microtiter plates were sprayed with aqueous test solutions prepared from 10,000 ppm DMSO stock solutions. After drying the leaves were infested with N2 nymphs. The samples were assessed for mortality 5 days after infestation.

[6] = test system: Myzus persicae (Green Peach Aphid); assay: Example B9 Myzus persicae feeding/contact activity; format: in vivo; settings: foliar, 144 h, application rate of 200 ppm, mixed-age aphids on sprayed sunflower leaf discs, 6 days after infestation
Protocol: Myzus persicae (Green Peach Aphid): Feeding/Contact Activity
Sunflower leaf discs were placed onto agar in a 24-well microtiter plate and sprayed with aqueous test solutions prepared from 10,000 ppm DMSO stock solutions. After drying, the leaf discs were infested with an aphid population of mixed ages. The samples were assessed for mortality 6 days after infestation.

[7] = test system: Frankliniella occidentalis (Western Flower Thrips); assay: Example B8 Frankliniella occidentalis feeding/contact activity; format: in vivo; settings: foliar, 168 h, application rate of 200 ppm, mixed-age population on sprayed sunflower leaf discs, 7 days after infestation
Protocol: Frankliniella occidentalis (Western Flower Thrips): Feeding/Contact Activity
Sunflower leaf discs were placed on agar in 24-well microtiter plates and sprayed with aqueous test solutions prepared from 10,000 DMSO stock solutions. After drying the leaf discs were infested with a Frankliniella population of mixed ages. The samples were assessed for mortality 7 days after infestation.

[8] = test system: Euschistus heros (Neotropical Brown Stink Bug); assay: Example B5 Euschistus heros mortality and growth inhibition; format: in vivo; settings: 120 h, application rate of 200 ppm, N2 nymphs on sprayed soybean leaves, 5 days after infestation, read-out: effect in at least one of the two categories (mortality or growth inhibition)
Protocol: Euschistus heros (Neotropical Brown Stink Bug)
as §5, with “mortality and growth inhibition in comparison to untreated samples” for “mortality”

[9] = test system: Myzus persicae (Green Peach Aphid); assay: Example B10 Myzus persicae systemic activity; format: in vivo; settings: 144 h, test rate of 24 ppm, roots of infested pea seedlings in test solution, 6 days
Protocol: Myzus persicae (Green Peach Aphid). Systemic Activity
Roots of pea seedlings infested with an aphid population of mixed ages were placed directly into aqueous test solutions prepared from 10,000 DMSO stock solutions. The samples were assessed for mortality 6 days after placing seedlings into test solutions.

[10] = test system: Bemisia tabaci (Cotton White Fly); assay: Example B1 Bemisia tabaci feeding/contact activity; format: in vivo; settings: foliar, 144 h, application rate of 200 ppm, adult white flies on sprayed cotton leaf discs, 6 days after incubation
Protocol: Bemisia tabaci (Cotton White Fly): Feeding/Contact Activity
Cotton leaf discs were placed on agar in 24-well microtiter plates and sprayed with aqueous test solutions prepared from 10,000 ppm DMSO stock solutions. After drying the leaf discs were infested with adult white flies. The samples were checked for mortality 6 days after incubation.

[11] = test system: Plutella xylostella (Diamond Back Moth); assay: Example B11 Plutella xylostella growth inhibition activity; format: in vivo; settings: 120 h, application rate of 200 ppm, L2 larvae on treated artificial diet, 5 days after infestation
Protocol: Plutella xylostella (Diamond Back Moth): Growth Inhibition Activity
as §4, with “for” for “for mortality and”, “infestation. Control of Plutella xylostella by a test sample is given when the growth inhibition is higher than the untreated sample.” for “infestation.”

[12] = test system: Plutella xylostella (Diamond Back Moth); assay: Example B12 Plutella xylostella feeding/contact activity; format: in vivo; settings: 120 h, application rate of 200 ppm, L2 larvae on treated artificial diet, 5 days after infestation
Protocol: Plutella xylostella (Diamond Back Moth): Feeding/Contact Activity
24-well microtiter plates with artificial diet were treated with aqueous test solutions prepared from 10,000 ppm DMSO stock solutions by pipetting. After drying, the plates were infested with L2 larvae (10 to 15 per well). The samples were assessed for mortality 5 days after infestation.

[13] = test system: Spodoptera littoralis (Egyptian Cotton Leaf Worm); assay: Example B14 Spodoptera littoralis anti-feeding activity; format: in vivo; settings: foliar, 72 h, application rate of 200 ppm, L1 larvae on sprayed cotton leaf discs, 3 days after infestation, read-out: control (anti-feeding effect)
Protocol: Spodoptera littoralis (Egyptian Cotton Leaf Worm): Anti-Feeding Activity
as §1, with “anti-feeding effect in comparison to untreated samples” for “mortality”, “infestation. Control of Spodoptera littoralis by a test sample is given when the anti-feedant effect is higher than the untreated sample.” for “infestation.”

[14] = test system: Diabrotica balteata (Corn Root Worm); assay: Example B3 Diabrotica balteata growth inhibition; format: in vivo; settings: 96 h, application rate of 200 ppm, L2 larvae on sprayed maize sprouts, 4 days after infestation
Protocol: as §2
as §3, with “growth inhibition in comparison to untreated samples” for “mortality”, “infestation. Control of Diabrotica balteata by a test sample is given when the growth inhibition is higher than in the untreated sample.” for “infestation.”

[15] = test system: Euschistus heros (Neotropical Brown Stink Bug); assay: Example B6 Euschistus heros growth inhibition; format: in vivo; settings: 120 h, application rate of 200 ppm, N2 nymphs on sprayed soybean leaves, 5 days after infestation
Protocol: Euschistus heros (Neotropical Brown Stink Bug): Growth Inhibition
as §5, with “growth inhibition in comparison to untreated samples” for “mortality”, “infestation. Control of Euschistus heros by a test sample is given when the growth inhibition is higher than the untreated sample.” for “infestation.”

CCS(=O)(=O)c1cc(OCC(F)F)cnc1-c1cn2cnc(C(F)(F)F)cc2n1 [Compound P8, 2-[5-(2,2-difluoroethoxy)-3-ethylsulfonyl-2-pyridyl]-7-(trifluoromethyl)imidazo[1,2-c]pyrimidine]
mortality at 200 ppm [1]: ≥ 80%
mortality at 200 ppm [2]: ≥ 80%
percent effect (mortality or growth inhibition) at 200 ppm [3]: ≥ 80%
percent effect (mortality or growth inhibition) at 200 ppm [4]: ≥ 80%
mortality at 200 ppm [5]: ≥ 80%
mortality at 200 ppm [6]: ≥ 80%
mortality at 200 ppm [7]: ≥ 80%
percent effect (mortality or growth inhibition) at 200 ppm [8]: ≥ 80%
mortality at 24 ppm [9]: ≥ 80%
mortality at 200 ppm [10]: ≥ 80%
inhibition at 200 ppm [11]: ≥ 80%
mortality at 200 ppm [12]: ≥ 80%
pest or weed control at 200 ppm [13]: ≥ 80%
inhibition at 200 ppm [14]: ≥ 80%

CCS(=O)(=O)c1cc(O)cnc1-c1cn2cnc(C(F)(F)F)cc2n1 [Compound P10, 5-ethylsulfonyl-6-[7-(trifluoromethyl)imidazo[1,2-c]pyrimidin-2-yl]pyridin-3-ol]
melting point: 229 to 232 °C

CCS(=O)(=O)c1cc(OCC(C)C)cnc1-c1cn2cnc(C(F)(F)F)cc2n1 [Compound P14, 2-(3-ethylsulfonyl-5-isobutoxy-2-pyridyl)-7-(trifluoromethyl)imidazo[1,2-c]pyrimidine]
mortality at 200 ppm [1]: ≥ 80%
mortality at 200 ppm [2]: ≥ 80%
inhibition at 200 ppm [15]: ≥ 80%
percent effect (mortality or growth inhibition) at 200 ppm [3]: ≥ 80%
percent effect (mortality or growth inhibition) at 200 ppm [4]: ≥ 80%
mortality at 200 ppm [5]: ≥ 80%
mortality at 200 ppm [6]: ≥ 80%
percent effect (mortality or growth inhibition) at 200 ppm [8]: ≥ 80%
mortality at 200 ppm [12]: ≥ 80%
pest or weed control at 200 ppm [13]: ≥ 80%

CCS(=N)(=O)c1cc(OC(C)(C)C#N)cnc1-c1cn2cnc(C(F)(F)F)cc2n1 (centres unmarked) [Compound P20, 2-[[5-(ethylsulfonimidoyl)-6-[7-(trifluoromethyl)imidazo[1,2-c]pyrimidin-2-yl]-3-pyridyl]oxy]-2-methyl-propanenitrile]
mortality at 200 ppm [1]: ≥ 80%
mortality at 200 ppm [2]: ≥ 80%
percent effect (mortality or growth inhibition) at 200 ppm [3]: ≥ 80%
percent effect (mortality or growth inhibition) at 200 ppm [4]: ≥ 80%
mortality at 200 ppm [6]: ≥ 80%
mortality at 24 ppm [9]: ≥ 80%
mortality at 200 ppm [10]: ≥ 80%
inhibition at 200 ppm [11]: ≥ 80%
mortality at 200 ppm [12]: ≥ 80%
pest or weed control at 200 ppm [13]: ≥ 80%
inhibition at 200 ppm [14]: ≥ 80%

CCS(=O)(=O)c1cc(OC[S+](C)[O-])cnc1-c1cn2cnc(C(F)(F)F)cc2n1 (centres unmarked) [Compound P22, 2-[3-ethylsulfonyl-5-(methylsulfinylmethoxy)-2-pyridyl]-7-(trifluoromethyl)imidazo[1,2-c]pyrimidine]
inhibition at 200 ppm [15]: ≥ 80%
mortality at 200 ppm [5]: ≥ 80%
mortality at 200 ppm [6]: ≥ 80%
mortality at 200 ppm [7]: ≥ 80%
percent effect (mortality or growth inhibition) at 200 ppm [8]: ≥ 80%
mortality at 24 ppm [9]: ≥ 80%
mortality at 200 ppm [10]: ≥ 80%

CCS(=O)(=O)c1cc(OCCS(C)(=O)=O)cnc1-c1cn2cnc(C(F)(F)F)cc2n1 [Compound P24, 2-[3-ethylsulfonyl-5-(2-methylsulfonylethoxy)-2-pyridyl]-7-(trifluoromethyl)imidazo[1,2-c]pyrimidine]
melting point: 209 to 210 °C

CCS(=O)(=O)c1cc(OCC(F)(F)F)cnc1-c1nc2cc(C(F)(F)F)ncn2c1Br [Compound P25, 3-bromo-2-[3-ethylsulfonyl-5-(2,2,2-trifluoroethoxy)-2-pyridyl]-7-(trifluoromethyl)imidazo[1,2-c]pyrimidine]
melting point: 86 to 88 °C

CCS(=O)(=O)c1cc(OCS(C)(=O)=O)cnc1-c1cn2cnc(C(F)(F)C(F)(F)F)cc2n1 [Compound P26, 2-[3-ethylsulfonyl-5-(methylsulfonylmethoxy)-2-pyridyl]-7-(1,1,2,2,2-pentafluoroethyl)imidazo[1,2-c]pyrimidine]
melting point: 248 to 250 °C

CCS(=O)(=O)c1cc(O)cnc1-c1nc2cc(C(F)(F)F)ncn2c1Br [Compound P27, 6-[3-bromo-7-(trifluoromethyl)imidazo[1,2-c]pyrimidin-2-yl]-5-ethylsulfonyl-pyridin-3-ol]
melting point: 230 to 234 °C
